Results published in patent publication US7118895B2, “Process for producing aglycon by using diglycosidase and flavor-improved food containing the aglycon and converting agent to be used in the process” (Amano Enzyme Inc., priority 2000, dated 2006).

Test system: Crude diglycosidase
Assay: Examination of pH in the conversion into isoflavone aglycons by diglycosidase using soybean materials
Assay type: biochemical, Penicillium multicolor IAM7153
Set-up: Decomposition efficiency of genistin family in soymilk / Decomposition efficiency of genistin family in defatted soybean / Decomposition efficiency of daidzin family in defatted soybean: concentration or dose not given beside the values
Conditions: for Decomposition efficiency of daidzin family in roasted soy flour: 55° C.
Summary of the method: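 Soybean materials (roasted soy flour, soymilk, defatted soybean, concentrated soy protein) suspended and adjusted to pH 2–11. Crude diglycosidase added at 1.88 AU/mL enzyme solution and reacted at 55° C. Ethanol-stopped at 0, 1, 3 and 6 h; isoflavone glycosides and aglycons detected by HPLC.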

[1] = pH4.8, heat treatment of enzyme: no, reaction time 0 h
[2] = pH4.8, heat treatment of enzyme: no, reaction time 1 h
[3] = pH4.8, heat treatment of enzyme: no, reaction time 3 h
[4] = pH4.8, heat treatment of enzyme: no, reaction time 6 h
[5] = pH4.8, heat treatment of enzyme: yes, reaction time 6 h
[6] = pH6.6, heat treatment of enzyme: no, reaction time 0 h
[7] = pH6.6, heat treatment of enzyme: no, reaction time 1 h
[8] = pH6.6, heat treatment of enzyme: no, reaction time 3 h
[9] = pH6.6, heat treatment of enzyme: no, reaction time 6 h
[10] = pH6.6, heat treatment of enzyme: yes, reaction time 6 h

O=c1c(-c2ccc(O)cc2)coc2cc(O[C@@H]3O[C@H](CO)[C@@H](O)[C@H](O)[C@H]3O)ccc12 [daidzin]
Decomposition efficiency of daidzin family in concentrated soybean protein (pH1.6, heat treatment of enzyme: no, reaction time 0 h): 52.5% | Decomposition efficiency of daidzin family in concentrated soybean protein (pH1.6, heat treatment of enzyme: no, reaction time 1 h): 53.0% | Decomposition efficiency of daidzin family in concentrated soybean protein (pH1.6, heat treatment of enzyme: no, reaction time 3 h): 55.0% | Decomposition efficiency of daidzin family in concentrated soybean protein (pH1.6, heat treatment of enzyme: no, reaction time 6 h): 57.2% | Decomposition efficiency of daidzin family in concentrated soybean protein (pH1.6, heat treatment of enzyme: yes, reaction time 6 h): 59.0% | Decomposition efficiency of daidzin family in roasted soy flour (pH2, heat treatment of enzyme no, reaction time 0 h): 49.1 | Decomposition efficiency of daidzin family in roasted soy flour (pH2, heat treatment of enzyme no, reaction time 1 h): 47.6 | Decomposition efficiency of daidzin family in roasted soy flour (pH2, heat treatment of enzyme no, reaction time 3 h): 50.3 | Decomposition efficiency of daidzin family in roasted soy flour (pH2, heat treatment of enzyme no, reaction time 6 h): 53.1 | Decomposition efficiency of daidzin family in roasted soy flour (pH2, heat treatment of enzyme yes, reaction time 6 h): 53.8 | Decomposition efficiency of daidzin family in soymilk (pH2.3, heat treatment of enzyme: no, reaction time 0 h): 34.4% | Decomposition efficiency of daidzin family in soymilk (pH2.3, heat treatment of enzyme: no, reaction time 1 h): not detected | Decomposition efficiency of daidzin family in soymilk (pH2.3, heat treatment of enzyme: no, reaction time 3 h): not detected | Decomposition efficiency of daidzin family in soymilk (pH2.3, heat treatment of enzyme: no, reaction time 6 h): not detected | Decomposition efficiency of daidzin family in soymilk (pH2.3, heat treatment of enzyme: yes, reaction time 6 h): 38.8% | Decomposition efficiency of daidzin family in defatted soybean (pH2.6, heat treatment of enzyme: no, reaction time 0 h): 45.8% | Decomposition efficiency of daidzin family in defatted soybean (pH2.6, heat treatment of enzyme: no, reaction time 1 h): 37.5% | Decomposition efficiency of daidzin family in defatted soybean (pH2.6, heat treatment of enzyme: no, reaction time 3 h): 17.3% | Decomposition efficiency of daidzin family in defatted soybean (pH2.6, heat treatment of enzyme: no, reaction time 6 h): 16.9% | Decomposition efficiency of daidzin family in defatted soybean (pH2.6, heat treatment of enzyme: yes, reaction time 6 h): 48.0% | Decomposition efficiency of daidzin family in concentrated soybean protein (pH2.7, heat treatment of enzyme: no, reaction time 0 h): 52.5% | Decomposition efficiency of daidzin family in concentrated soybean protein (pH2.7, heat treatment of enzyme: no, reaction time 1 h): 12.9% | Decomposition efficiency of daidzin family in concentrated soybean protein (pH2.7, heat treatment of enzyme: no, reaction time 3 h): 12.5% | Decomposition efficiency of daidzin family in concentrated soybean protein (pH2.7, heat treatment of enzyme: no, reaction time 6 h): 9.3% | Decomposition efficiency of daidzin family in concentrated soybean protein (pH2.7, heat treatment of enzyme: yes, reaction time 6 h): 53.0% | Decomposition efficiency of daidzin family in roasted soy flour (pH3, heat treatment of enzyme no, reaction time 0 h): 49.1 | Decomposition efficiency of daidzin family in roasted soy flour (pH3, heat treatment of enzyme no, reaction time 1 h): not detected | Decomposition efficiency of daidzin family in roasted soy flour (pH3, heat treatment of enzyme no, reaction time 3 h): not detected | Decomposition efficiency of daidzin family in roasted soy flour (pH3, heat treatment of enzyme no, reaction time 6 h): not detected | Decomposition efficiency of daidzin family in roasted soy flour (pH3, heat treatment of enzyme yes, reaction time 6 h): 49.0 | Decomposition efficiency of daidzin family in defatted soybean (pH3.4, heat treatment of enzyme: no, reaction time 0 h): 45.8% | Decomposition efficiency of daidzin family in defatted soybean (pH3.4, heat treatment of enzyme: no, reaction time 1 h): not detected | Decomposition efficiency of daidzin family in defatted soybean (pH3.4, heat treatment of enzyme: no, reaction time 3 h): not detected | Decomposition efficiency of daidzin family in defatted soybean (pH3.4, heat treatment of enzyme: no, reaction time 6 h): not detected | Decomposition efficiency of daidzin family in defatted soybean (pH3.4, heat treatment of enzyme: yes, reaction time 6 h): 47.8% | Decomposition efficiency of daidzin family in soymilk (pH3.5, heat treatment of enzyme: no, reaction time 0 h): 34.4% | Decomposition efficiency of daidzin family in soymilk (pH3.5, heat treatment of enzyme: no, reaction time 1 h): not detected | Decomposition efficiency of daidzin family in soymilk (pH3.5, heat treatment of enzyme: no, reaction time 3 h): not detected | Decomposition efficiency of daidzin family in soymilk (pH3.5, heat treatment of enzyme: no, reaction time 6 h): not detected | Decomposition efficiency of daidzin family in soymilk (pH3.5, heat treatment of enzyme: yes, reaction time 6 h): 40.4% | Decomposition efficiency of daidzin family in concentrated soybean protein (pH3.7, heat treatment of enzyme: no, reaction time 0 h): 52.5% | Decomposition efficiency of daidzin family in concentrated soybean protein (pH3.7, heat treatment of enzyme: no, reaction time 1 h): not detected | Decomposition efficiency of daidzin family in concentrated soybean protein (pH3.7, heat treatment of enzyme: no, reaction time 3 h): not detected | Decomposition efficiency of daidzin family in concentrated soybean protein (pH3.7, heat treatment of enzyme: no, reaction time 6 h): not detected | Decomposition efficiency of daidzin family in concentrated soybean protein (pH3.7, heat treatment of enzyme: yes, reaction time 6 h): 52.5% | Decomposition efficiency of daidzin family in roasted soy flour (pH4, heat treatment of enzyme no, reaction time 0 h): 48.7 | Decomposition efficiency of daidzin family in roasted soy flour (pH4, heat treatment of enzyme no, reaction time 1 h): not detected | Decomposition efficiency of daidzin family in roasted soy flour (pH4, heat treatment of enzyme no, reaction time 3 h): not detected | Decomposition efficiency of daidzin family in roasted soy flour (pH4, heat treatment of enzyme no, reaction time 6 h): not detected | Decomposition efficiency of daidzin family in roasted soy flour (pH4, heat treatment of enzyme yes, reaction time 6 h): 48.6 | Decomposition efficiency of daidzin family in defatted soybean [1]: 43.5% | Decomposition efficiency of daidzin family in soymilk [1]: 34.9% | Decomposition efficiency of daidzin family in defatted soybean [2]: not detected | Decomposition efficiency of daidzin family in soymilk [2]: not detected | Decomposition efficiency of daidzin family in defatted soybean [3]: not detected | Decomposition efficiency of daidzin family in soymilk [3]: not detected | Decomposition efficiency of daidzin family in defatted soybean [4]: not detected | Decomposition efficiency of daidzin family in soymilk [4]: not detected | Decomposition efficiency of daidzin family in defatted soybean [5]: 37.1% | Decomposition efficiency of daidzin family in soymilk [5]: 41.2% | Decomposition efficiency of daidzin family in roasted soy flour (pH5, heat treatment of enzyme no, reaction time 0 h): 48.7 | Decomposition efficiency of daidzin family in roasted soy flour (pH5, heat treatment of enzyme no, reaction time 1 h): not detected | Decomposition efficiency of daidzin family in roasted soy flour (pH5, heat treatment of enzyme no, reaction time 3 h): not detected | Decomposition efficiency of daidzin family in roasted soy flour (pH5, heat treatment of enzyme no, reaction time 6 h): not detected | Decomposition efficiency of daidzin family in roasted soy flour (pH5, heat treatment of enzyme yes, reaction time 6 h): 50.6 | Decomposition efficiency of daidzin family in concentrated soybean protein (pH5.1, heat treatment of enzyme: no, reaction time 0 h): 52.5% | Decomposition efficiency of daidzin family in concentrated soybean protein (pH5.1, heat treatment of enzyme: no, reaction time 1 h): not detected | Decomposition efficiency of daidzin family in concentrated soybean protein (pH5.1, heat treatment of enzyme: no, reaction time 3 h): not detected | Decomposition efficiency of daidzin family in concentrated soybean protein (pH5.1, heat treatment of enzyme: no, reaction time 6 h): not detected | Decomposition efficiency of daidzin family in concentrated soybean protein (pH5.1, heat treatment of enzyme: yes, reaction time 6 h): 53.4% | Decomposition efficiency of daidzin family in defatted soybean (pH5.4, heat treatment of enzyme: no, reaction time 0 h): 43.5% | Decomposition efficiency of daidzin family in defatted soybean (pH5.4, heat treatment of enzyme: no, reaction time 1 h): not detected | Decomposition efficiency of daidzin family in defatted soybean (pH5.4, heat treatment of enzyme: no, reaction time 3 h): not detected | Decomposition efficiency of daidzin family in defatted soybean (pH5.4, heat treatment of enzyme: no, reaction time 6 h): not detected | Decomposition efficiency of daidzin family in defatted soybean (pH5.4, heat treatment of enzyme: yes, reaction time 6 h): not detected | Decomposition efficiency of daidzin family in soymilk (pH6.2, heat treatment of enzyme: no, reaction time 0 h): 34.9% | Decomposition efficiency of daidzin family in soymilk (pH6.2, heat treatment of enzyme: no, reaction time 1 h): not detected | Decomposition efficiency of daidzin family in soymilk (pH6.2, heat treatment of enzyme: no, reaction time 3 h): not detected | Decomposition efficiency of daidzin family in soymilk (pH6.2, heat treatment of enzyme: no, reaction time 6 h): not detected | Decomposition efficiency of daidzin family in soymilk (pH6.2, heat treatment of enzyme: yes, reaction time 6 h): 40.6% | Decomposition efficiency of daidzin family in roasted soy flour (pH6.5, heat treatment of enzyme no, reaction time 0 h): 48.4 | Decomposition efficiency of daidzin family in roasted soy flour (pH6.5, heat treatment of enzyme no, reaction time 1 h): not detected | Decomposition efficiency of daidzin family in roasted soy flour (pH6.5, heat treatment of enzyme no, reaction time 3 h): not detected | Decomposition efficiency of daidzin family in roasted soy flour (pH6.5, heat treatment of enzyme no, reaction time 6 h): not detected | Decomposition efficiency of daidzin family in roasted soy flour (pH6.5, heat treatment of enzyme yes, reaction time 6 h): 51.9 | Decomposition efficiency of daidzin family in concentrated soybean protein [6]: 52.1% | Decomposition efficiency of daidzin family in defatted soybean [6]: 43.6% | Decomposition efficiency of daidzin family in concentrated soybean protein [7]: 5.0% | Decomposition efficiency of daidzin family in defatted soybean [7]: not detected | Decomposition efficiency of daidzin family in concentrated soybean protein [8]: not detected | Decomposition efficiency of daidzin family in defatted soybean [8]: not detected | Decomposition efficiency of daidzin family in concentrated soybean protein [9]: not detected | Decomposition efficiency of daidzin family in defatted soybean [9]: not detected | Decomposition efficiency of daidzin family in concentrated soybean protein [10]: 55.1% | Decomposition efficiency of daidzin family in defatted soybean [10]: 9.3% | Decomposition efficiency of daidzin family in soymilk (pH7.2, heat treatment of enzyme: no, reaction time 0 h): 34.9% | Decomposition efficiency of daidzin family in soymilk (pH7.2, heat treatment of enzyme: no, reaction time 1 h): not detected | Decomposition efficiency of daidzin family in soymilk (pH7.2, heat treatment of enzyme: no, reaction time 3 h): not detected | Decomposition efficiency of daidzin family in soymilk (pH7.2, heat treatment of enzyme: no, reaction time 6 h): not detected | Decomposition efficiency of daidzin family in soymilk (pH7.2, heat treatment of enzyme: yes, reaction time 6 h): 41.5% | Decomposition efficiency of daidzin family in defatted soybean (pH7.8, heat treatment of enzyme: no, reaction time 0 h): 44.7% | Decomposition efficiency of daidzin family in defatted soybean (pH7.8, heat treatment of enzyme: no, reaction time 1 h): 13.3% | Decomposition efficiency of daidzin family in defatted soybean (pH7.8, heat treatment of enzyme: no, reaction time 3 h): 10.1% | Decomposition efficiency of daidzin family in defatted soybean (pH7.8, heat treatment of enzyme: no, reaction time 6 h): 9.4% | Decomposition efficiency of daidzin family in defatted soybean (pH7.8, heat treatment of enzyme: yes, reaction time 6 h): 41.6% | Decomposition efficiency of daidzin family in roasted soy flour (pH8.5, heat treatment of enzyme no, reaction time 0 h): 54.1 | Decomposition efficiency of daidzin family in roasted soy flour (pH8.5, heat treatment of enzyme no, reaction time 1 h): 20.4 | Decomposition efficiency of daidzin family in roasted soy flour (pH8.5, heat treatment of enzyme no, reaction time 3 h): 13.3 | Decomposition efficiency of daidzin family in roasted soy flour (pH8.5, heat treatment of enzyme no, reaction time 6 h): 10.2 | Decomposition efficiency of daidzin family in roasted soy flour (pH8.5, heat treatment of enzyme yes, reaction time 6 h): 58.8 | Decomposition efficiency of daidzin family in concentrated soybean protein (pH8.6, heat treatment of enzyme: no, reaction time 0 h): 56.1% | Decomposition efficiency of daidzin family in concentrated soybean protein (pH8.6, heat treatment of enzyme: no, reaction time 1 h): 50.8% | Decomposition efficiency of daidzin family in concentrated soybean protein (pH8.6, heat treatment of enzyme: no, reaction time 3 h): 45.0% | Decomposition efficiency of daidzin family in concentrated soybean protein (pH8.6, heat treatment of enzyme: no, reaction time 6 h): 34.5% | Decomposition efficiency of daidzin family in concentrated soybean protein (pH8.6, heat treatment of enzyme: yes, reaction time 6 h): 59.1% | Decomposition efficiency of daidzin family in soymilk (pH11.6, heat treatment of enzyme: no, reaction time 0 h): 38.8% | Decomposition efficiency of daidzin family in soymilk (pH11.6, heat treatment of enzyme: no, reaction time 1 h): not detected | Decomposition efficiency of daidzin family in soymilk (pH11.6, heat treatment of enzyme: no, reaction time 3 h): not detected | Decomposition efficiency of daidzin family in soymilk (pH11.6, heat treatment of enzyme: no, reaction time 6 h): not detected | Decomposition efficiency of daidzin family in soymilk (pH11.6, heat treatment of enzyme: yes, reaction time 6 h): 44.6%
